Results as given in patent publication US4556674A, “2-Imino-pyrrolidines, process for their preparation, and therapeutic compositions containing same” (Laboratoires Jacques Logeais, priority 1983, dated 1985).

Experiments:
Acute Toxicity in Mice = format: in vivo; conditions: mouse, in vivo, death rate recorded 9 days after treatment
Method: (§1) The compounds were administered orally or intraperitoneally, in the form of a solution in physiological saline (0,9 % NaCl), to male mice of Swiss strain (body weight: 22-25 g). The death rate was recorded 9 days after the treatment. […]

[1] = system: collagen-induced blood-platelet aggregation (platelet rich plasma); experiment: Collagen-induced blood-platelet aggregation; format: cell-based, rabbit; conditions: for minimal effective concentration: Oryctolagus cuniculus, Platelet, read-out: Collagen-induced blood-platelet aggregation: Threshold concentrations (inhibition of aggregation <50%)
Method: Collagen-induced blood-platelet aggregation
Blood samples were taken from the carotid artery in rabbits, using an anticoagulant (sodium citrate at 3.8%, 1 volume per 9 volumes of blood). The platelet rich plasma (PRP) was obtained by slow centrifugation (1200 RPM for 10 mn), and the platelet poor plasma (PPP) by rapid centrifugation (4500 RPM for 15 mn). The PRP samples were placed in the cell of an aggregometer, incubated at 37° C., after which was added thereto Michaelis buffer containing the test compound (0.04 ml), followed by the aggregating agent (collagen: 0.08 ml of collagen suspension previously incubated at 33° C. for 90 seconds). Blood-platelet aggregation is evidenced by the decrease of the optical density of the PRP (Initial O.D. of the PRP: 100%. Initial O.D. of the PPP=0%.)

[2] = system: aconitine-induced dysrhythmia; experiment: Anti-dysrhythmic activity, aconitine test in rats; format: in vivo, rat
Method: The animals are anesthetized with urethane (1 g/kg i.p.); an aconitine sulfate injection (27.5 μg/kg) is made in the pre-catheterized jugular vein, 30 minutes after administration by the same route of one of the test compounds. The time delay before the appearance of the first burst of dysrhythmia is noted on the electrocardiogram (D2 lead recording) and compared with reference animals.

human plasma clots = experiment: Fibrinolytic activity (lysis of human plasma clots); parameters: Concentration inducing lysis of the clot within 24 hours / Concentration inducing lysis of the clot within 48 hours: unit not given here; conditions: for Concentration inducing lysis of the clot within 48 hours / Concentration inducing lysis of the clot within 24 hours: human plasma clot, veronal buffer pH 7.2-7.4, 37° C.
Method: The following method was used.
Human plasma clots were prepared by recalcification (one drop of calcium thrombase at 20 U/ml per 0.5 ml of plasma), so that the clot formed around the hook of a glass rod. The clots were then suspended in buffered solutions (veronal buffer pH 7.2-7.4) maintained at 37° C. The eventual lysis of the clot is recorded after 24 hrs and 48 hrs incubation.

[3] = system: male mice of Swiss strain; experiment: Acute Toxicity in Mice; format: in vivo; conditions: result in words
Method: as §1

α-adrenolytic activity = α-adrenolytic activity observed in dog after an injection of nor-adrenalin; format: in vivo; conditions: result in words
cardiac rhythm = conditions: described in DE-A-1770 752; cited from earlier work
[4] = rabbit PRP, 37° C., collagen, threshold concentrations
[5] = Rattus norvegicus, iv, read-out: Aconitine-induced dysrhythmia, percent animals protected

SMILES | mortality at 216 h (Acute Toxicity in Mice; ip, 100 mg/kg i.p.) | mortality at 216 h (Acute Toxicity in Mice; po, 200 mg/kg p.o.) | minimal effective concentration [1, 4] | Concentration inducing lysis of the clot within 48 hours (human plasma clots) | other results
CC(Cc1ccccc1)N=C1CC(c2ccccc2)CN1C (stereo not drawn) [Example 2, 1-Methyl-4-phenyl-2-phenylisopropylimino-pyrrolidine] | 100% | 83% | 10 µg/mL | – | responders at 1 mg/kg [2, 5]: 67%
CCc1ccccc1OCC1CC(=NCCc2ccc(OC)c(OC)c2)N(C)C1 (stereo not drawn) [Example 21, 1-Methyl-4-(2'-ethyl-phenoxymethyl)-2-(3',4'-dimethoxy-phenethylimino)pyrrolidine] | – | 0% | 3 µg/mL | 10-20 | mortality at 216 h (Acute Toxicity in Mice; ip, 33 mg/kg i.p.): 20%; responders at 7.5 mg/kg [2, 5]: 100%
COc1ccc(CCN=C2CC(COc3ccc4c(c3)OCO4)CN2C)cc1OC (stereo not drawn) [Example 20, 1-Methyl-4-(3',4'-methylenedioxy-phenoxymethyl)-4-(3',4'-dimethoxy-phenethylimino)pyrrolidine] | 80% | 0% | 10 to 30 µg/mL | – | responders at 10 mg/kg [2, 5]: 100%
CCCN1CC(c2ccccc2)CC1=NCCOc1ccccc1 (stereo not drawn) [Example 6, 1-n.Propyl-4-phenyl-2-(phenoxyethyl-imino)pyrrolidine] | – | – | 1 to 3 µg/mL | 5-10 | –
CN1CC(c2cc3ccccc3o2)CC1=NCCOc1ccccc1 (stereo not drawn) [Example 15, 1-Methyl-4-(2-benzofuryl)-2-(2-phenoxy-ethylimino)-pyrrolidine] | 100% | 10% | – | – | responders at 5 mg/kg [2, 5]: 80%
COc1ccc(CCN=C2CC(c3ccccc3)CN2C)cc1OC (stereo not drawn) [Example 4, 1-Methyl-4-phenyl-2-(3',4'-dimethoxy-phenethylimino)pyrrolidine] | – | 0% | 10 to 30 µg/mL | – | mortality at 216 h (Acute Toxicity in Mice; ip, 200 mg/kg i.p.): 100%; responders at 7.5 mg/kg [2, 5]: 90%
CN1CC(c2ccccc2)CC1=NCCOc1ccccc1 (stereo not drawn) [Example 3, 1-Methyl-4-phenyl-2-(2-phenoxy-ethylimino)pyrrolidine] | – | 0% | 1 to 3 µg/mL | – | mortality at 216 h (Acute Toxicity in Mice; ip, 200 mg/kg i.p.): 0%; toxicity [3]: least toxic in mice; anti-blood-platelet-aggregation activity ([1]; result in words): possesses an anti-blood-platelet aggregating activity; Concentration inducing lysis of the clot within 24 hours (human plasma clots): 10-20; fibrinolytic activity (human plasma clots; result in words): a fibrinolytic activity; responders at 10 mg/kg [2, 5]: 83%; anti-arrhythmic activity ([2]; result in words): an anti-arrhythmic activity; α-adrenolytic activity (α-adrenolytic activity): an α-adrenolytic activity
CCN1CC(c2ccccc2)CC1=NCCc1ccc(OC)c(OC)c1 (stereo not drawn) [Example 5, 1-Ethyl-4-phenyl-2-(3',4'-dimethoxy-phenethylimino)pyrrolidine] | 20% | 0% | 3 to 10 µg/mL | – | –
CN1CC(COc2ccc3c(c2)OCO3)CC1=NCCOc1ccccc1 (stereo not drawn) [Example 19, 1-Methyl-4-(3',4'-methylenedioxy-phenoxymethyl)-2-(2-phenoxy-ethylimino)-pyrrolidine] | 80% | 0% | 3 to 10 µg/mL | – | responders at 2.5 mg/kg [2, 5]: 25%
CN1CC(c2ccccc2)CC1=NCCc1ccccc1 (stereo not drawn) [Example 1, 1-Methyl-4-phenyl-2-phenylethylimino-pyrrolidine] | 80% | 0% | – | – | responders at 1 mg/kg [2, 5]: 25%
CN1CC(COc2ccccc2)CC1=NCCOc1ccccc1 (stereo not drawn) [Example 17, 1-Methyl-4-phenoxymethyl-2-(2-phenoxy-ethylimino)-pyrrolidine] | – | – | 3 µg/mL | – | responders at 10 mg/kg [2, 5]: 100%
C=CCN=C1CC(c2cc3ccccc3o2)CN1C (stereo not drawn) [Example 9, 1-Methyl-4-(2-benzofuryl)-2-allylimino-pyrrolidine] | 60% | – | 3 to 10 µg/mL | – | mortality at 216 h (Acute Toxicity in Mice; po, 100 mg/kg p.o.): 0%
C#CCN=C1CC(c2cc3ccccc3o2)CN1C (stereo not drawn) [Example 10, 1-Methyl-4-(2-benzofuryl)-2-propargylimino-pyrrolidine] | – | – | 100 µg/mL | – | –
COc1ccc(CCN=C2CC(COc3ccccc3)CN2C)cc1OC (stereo not drawn) [Example 18, 1-Methyl-4-phenoxymethyl-2-(3',4'-dimethoxy-phenethylimino)pyrrolidine] | 40% | 0% | 10 to 30 µg/mL | 20 | responders at 5 mg/kg [2, 5]: 100%
COc1ccc(CCN=C2CCCN2C)cc1OC [Compound A, 1-methyl-2-[(3,4-dimethoxy-phenylethyl)imino]pyrrolidine, reference compound] | – | 0% | – | – | mortality at 216 h (Acute Toxicity in Mice; ip, 200 mg/kg i.p.): 60%; Collagen-induced blood-platelet aggregation: Threshold concentrations (inhibition of aggregation <50%) [1, 4]: inactive; responders at 5 mg/kg [2, 5]: 0%; action on the cardiac rhythm (cardiac rhythm): decreasing action on the cardiac rhythm
CN1CC(COc2ccccc2C#N)CC1=NCCOc1ccccc1 (stereo not drawn) [Example 22, 1-Methyl-4-(2'-cyano-phenoxymethyl)-2-(2-phenoxyethylimino)-pyrrolidine] | – | 0% | 30 µg/mL | 5-10 | mortality at 216 h (Acute Toxicity in Mice; ip, 33 mg/kg i.p.): 40%; Concentration inducing lysis of the clot within 24 hours (human plasma clots): 20
CN1CC(c2cc3ccccc3o2)CC1=NCCO (stereo not drawn) [Example 11] | – | 0% | 10 to 100 µg/mL | – | mortality at 216 h (Acute Toxicity in Mice; ip, 200 mg/kg i.p.): 80%
COc1ccc(CCN=C2CC(c3cc4ccccc4o3)CN2C)cc1OC (stereo not drawn) [Example 16] | 100% | 0% | 10 to 30 µg/mL | – | responders at 3 mg/kg [2, 5]: 80%
CN1CC(c2cc3ccccc3o2)CC1=NCCc1ccccc1 (stereo not drawn) [Example 13, 1-Methyl-4-(2-benzofuryl)-2-phenethylimino-pyrrolidine] | 100% | 0% | 3 to 30 µg/mL | 2.5-5 | Concentration inducing lysis of the clot within 24 hours (human plasma clots): 10; responders at 5 mg/kg [2, 5]: 50%
CCCN=C1CC(c2cc3ccccc3o2)CN1C (stereo not drawn) [Example 8, 1-Methyl-4-(2-benzofuryl)-2-n.propyl-imino-pyrrolidine] | – | – | 10 to 30 µg/mL | 20 | –
COCCN=C1CC(c2cc3ccccc3o2)CN1C (stereo not drawn) [Example 12, 1-Methyl-4-(2-benzofuryl)-2-(2-methoxy-ethylimino)-pyrrolidine] | 100% | 0% | 3 to 30 µg/mL | – | –
C=CCN1CC(c2ccccc2)CC1=NCCc1ccc(OC)c(OC)c1 (stereo not drawn) [Example 7, 1-Allyl-4-phenyl-2-(3',4'-dimethoxy-phenethyl-imino)pyrrolidine] | – | – | 10 µg/mL | 10-20 | –
CC(Cc1ccccc1)N=C1CC(c2cc3ccccc3o2)CN1C (stereo not drawn) [Example 14, 1-Methyl-4-(2-benzofuryl)-2-phenylisopropyl-imino-pyrrolidine] | 80% | 0% | 3 to 10 µg/mL | – | responders at 5 mg/kg [2, 5]: 100%
